Assay results: patent publication US9926321B2, “Hsp90 inhibitors” (Sloan-Kettering Institute for Cancer Research, priority 2011, dated 2018)

How the values were obtained:
Hsp90 (SKBr3 lysate) = test: Hsp90 binding assay (fluorescence polarization, cy3B-GM displacement), human cancer cell lysate; conditions: lysate not given
Procedure: (§1) For the binding studies, fluorescence polarization (FP) assays w-re performed similarly as was previously reported [Du et al. (2007) “High-throughput screening fluorescence polarization assay for tumor-specific Hsp90” J. Biomol. Screen 12:915-924]. Briefly, FP measurements were performed on an Analyst GT instrument (Molecular Devices, Sunnyvale, Calif.). Measurements were taken in black 96-well microtiter plates (Corning #3650) where both the excitation and the emission occurred from the top of the well. A stock of 10 μM cy3B-GM was prepared in DMSO and diluted with HFB buffer (20 mM Hepes (K), pH 7.3, 50 mM KCl, 2 mM DTT, 5 mM MgCl2, 20 mM Na2MoO4, and 0.01% NP40 with 0.1 mg/mL BGG). The test compounds were dissolved in DMSO and added at several concentrations to the HFB assay buffer containing both 6 nM cy3B-GM and transgenic mouse brain lysate (6 μg JNPL3 lysate) or human cancer cell lysate (3 μg SKBr3 lysate) in a final volume of 100 μL. Drugs were added to triplicate wells. Free cy3B-GM (6 nM cy3B-GM), bound cy3B-GM (6 nM cy3B-GM+lysate, as indicated above) and buffer only containing wells (background) were included as controls in each plate. Plates were incubated on a shake at 4° C., and polarization values measured at 24 h. Percentage inhibition was calculated as follows: (% Control)=100−((mPc−mPf)/(mPb−mPf))×100, where mPc is the recorded mP from compound wells, mPf is the average recorded mP from cy3B-GM-only wells, and mPb is the average recorded mP from wells containing both cy3B-GM and lysate, and plotted against values of competitor concentrations. The inhibitor concentration at which 50% of bound cy3B-GM was displaced was obtained by fitting the data using a nonlinear regression analysis as implemented in Prism 4.0 (GraphPad Software).

Hsp90 = test: as above; conditions: fluorescence polarization, cy3B-GM displacement; the table does not say which lysate (SKBr3 or JNPL3)
Procedure: as §1

Row | Structure (SMILES) | IC50 (Hsp90) [nM] | Hsp90 binding affinity (in words, referring to Table 12) (Hsp90 (SKBr3 lysate))
1 | CC(C)(C)NS(=O)(=O)CCn1c(Sc2cc3c(cc2I)OCO3)nc2c(N)ncnc21 [Compound 1A-5, 2-[6-Amino-8-(6-iodo-benzo[1,3]dioxol-5-ylsulfanyl)-purin-9-yl]-ethanesulfonic acid tert-butylamide] | 78 | high level of binding affinity
2 | CC(C)(C)S(=O)(=O)NCCn1c(Sc2cc3c(cc2I)OCO3)nc2c(N)ncnc21 [Compound 1A-11, 2-Methyl-propane-2-sulfonic acid {2-[6-amino-8-(6-iodo-benzo[1,3]dioxol-5-ylsulfanyl)-purin-9-yl]-ethyl}-amide] | 71.5 | high level of binding affinity
3 | CC(C)(C)NS(=O)(=O)CCCn1c(Sc2cc3c(cc2I)OCO3)nc2c(N)ncnc21 [Compound 1A-19, 3-[6-Amino-8-(6-iodo-benzo[1,3]dioxol-5-ylsulfanyl)-purin-9-yl]-propane-1-sulfonic acid tert-butylamide] | 44 | high level of binding affinity
4 | CC(C)CS(=O)(=O)NCCCn1c(Sc2cc3c(cc2I)OCO3)nc2c(N)ncnc21 [Compound 1A-27, 2-Methyl-propane-1-sulfonic acid {3-[6-amino-8-(6-iodo-benzo[1,3]dioxol-5-ylsulfanyl)-purin-9-yl]-propyl}-amide] | 64 | –
5 | CC(C)C(=O)NCCCn1c(Sc2cc3c(cc2I)OCO3)nc2c(N)ncnc21 [Compound 1A-44, N-(3-(6-Amino-8-((6-iodobenzo[d][1,3]dioxol-5-yl)thio)-9H-purin-9-yl)propyl)isobutyramide] | 68 | –
6 | NC(=O)CCCCCn1c(Sc2cc3c(cc2I)OCO3)nc2c(N)ncnc21 [Compound 1A-50, 6-(6-amino-8-((6-iodobenzo[d][1,3]dioxol-5-yl)thio)-9H-purin-9-yl)hexanamide] | 76.5 | –
7 | CC(C)(C)[S+]([O-])NCCn1c(Sc2cc3c(cc2I)CCC3)nc2c(N)ncnc21 (centres unmarked) [Compound 3A-12, 2-Methyl-propane-2-sulfinic acid {2-[6-amino-8-(6-iodo-indan-5-ylsulfanyl)-purin-9-yl]-ethyl}-amide] | – | high level of binding affinity

Now from value to molecule, other results behind:

Row | IC50 (Hsp90) [nM] | Structure (SMILES) | Hsp90 binding affinity (in words, referring to Table 12) (Hsp90 (SKBr3 lysate))
8 | 6.3 | CS(=O)(=O)NCCn1c(Sc2cc3c(cc2I)OCO3)nc2c(N)ncnc21 [Compound 1A-10, N-{2-[6-Amino-8-(6-iodo-benzo[1,3]dioxol-5-ylsulfanyl)-purin-9-yl]-ethyl}-methanesulfonamide] | high level of binding affinity
9 | 24 | CC(C)(C)S(=O)(=O)NCCCn1c(Sc2cc3c(cc2I)OCO3)nc2c(N)ncnc21 [Compound 1A-25, 2-Methyl-propane-2-sulfonic acid {3-[6-amino-8-(6-iodo-benzo[1,3]dioxol-5-ylsulfanyl)-purin-9-yl]-propyl}-amide] | –
10 | 19.7 | Nc1ncnc2c1nc(Sc1cc3c(cc1I)OCO3)n2CCCNS(=O)(=O)C1CC1 [Compound 1A-28, Cyclopropanesulfonic acid {3-[6-amino-8-(6-iodo-benzo[1,3]dioxol-5-ylsulfanyl)-purin-9-yl]-propyl}-amide] | –
11 | 16.5 | CC(=O)OC(C)(C)C(=O)NCCCn1c(Sc2cc3c(cc2I)OCO3)nc2c(N)ncnc21 [Compound 1A-47, 1-((3-(6-Amino-8-((6-iodobenzo[d][1,3]dioxol-5-yl)thio)-9H-purin-9-yl)propyl)amino)-2-methyl-1-oxopropan-2-yl acetate] | –
12 | 28.3 | COc1ccc(I)c(Sc2nc3c(N)ncnc3n2CCCNC(=O)C(C)(C)C)c1 [Compound 1A-49, N-(3-(6-amino-8-((2-iodo-5-methoxyphenyl)thio)-9H-purin-9-yl)propyl)pivalamide] | –
13 | 29.6 | CC(C)(C)[S+]([O-])NCCn1c(Cc2cc3c(cc2I)OCO3)nc2c(N)nc(F)nc21 (centres unmarked) [Compound 4A-12, N-(2-(6-amino-2-fluoro-8-((6-iodobenzo[d][1,3]dioxol-5-yl)methyl)-9H-purin-9-yl)ethyl)-2-methylpropane-2-sulfinamide] | –
